Common to all, as to type: biochemical
Experiment [1] concerns the target T1, recombinant human PLA2 (snpPLA2) (Homo sapiens, UniProt P14555).
T1 sequence (P14555 21-144): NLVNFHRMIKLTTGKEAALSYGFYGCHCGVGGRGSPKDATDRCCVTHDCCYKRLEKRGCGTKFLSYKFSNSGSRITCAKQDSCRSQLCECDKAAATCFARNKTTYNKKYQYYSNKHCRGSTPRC
In words: PLA2 inhibition, radiolabelled E. coli assay, recombinant human PLA2. The method, then:
(§1) Six different chemically-modified tetracyclines, including CMT-1 (4-dedimethylaminotetracycline), CMT-2 (tetracyclinonitrile), CMT-3 (6-demethyl-6-deoxy-4-de-dimethylaminotetracycline), CMT-4 (4-de-dimethylamino-7-chloro-tetracycline), CMT-5 (pyrazole analog) and CMT-6 (4-hydroxy-4-dedimethylaminotetracycline), were examined for their ability to inhibit PLA2 activity in vitro. The sources of PLA2 that were tested included recombinant human PLA2, human pancreatic and porcine pancreatic PLA2 and Naja naja PLA2. […] Various concentrations of CMTs, ranging from 5-100 μg/ml, were preincubated with the different PLA2 enzymes for 30 minutes and the mixture was tested for PLA2 activity using a known E. coli assay method (see Arthritis and Rheumatism, 34 Supp. 9: p. S160 (abst C167)).
(§2) A chemically-modified tetracycline, 4-dedimethyl-amino-7-dimethylaminotetracycline (CMT-10), was examined for its ability to inhibit PLA2 activity in vitro. The sources of PLA2 that were tested included were recombinant human PLA2 (snpPLA2), human pancreatic and porcine pancreatic PLA2 and Naja naja PLA2. […] Various concentrations of CMT-10, ranging from 5-100 μg/ml, were preincubated with the different PLA2 enzymes for 30 minutes and the mixture was tested for PLA2 activity using a known E. coli assay method (see Arthritis and Rheumatism, 34 Supp. 9: p. S160 (abst C167)).
(§3) In particular, [^14 C]Oleic acid-labelled Escherichia coli (strain K12 C600) were used as the substrate. This substrate has been characterized with respect to phospholipid composition and distribution of radiolabel. Reaction mixtures contained 10 mg bovine serum albumin, 2 mM CaCl2, 2.8×10^8 radiolabelled E. coli and 0.1 M Tris-HCl buffer, pH 7.5 in a total volume of 1.5 ml. Reaction mixtures were incubated at 37° C. for 30 min. The reaction was terminated by filtration through a 0.45 μm Millipore filter, thereby retaining unhydrolysed E. coli membranes, and allowing the [^14 C]oleic acid bound to the BSA carrier, released as a result of PLA2 hydrolysis, to pass through the filter. Assays were performed in duplicate and values shown represent the mean of two determinations with a SD<5% of the mean. Assays were performed in substrate excess and enzyme activities were corrected for non-enzymatichydrolysis. One unit of PLA2 activity is defined as the hydrolysis of 56 pmol of phospholipid substrate (representing 1% of total E. coli phospholipid) in 30 min at 37° C.

Experiment [2] deals with T2, human pancreatic PLA2 (Homo sapiens, UniProt P04054).
T2 construct: labelled E. coli membrane substrate
T2 sequence (P04054 23-148): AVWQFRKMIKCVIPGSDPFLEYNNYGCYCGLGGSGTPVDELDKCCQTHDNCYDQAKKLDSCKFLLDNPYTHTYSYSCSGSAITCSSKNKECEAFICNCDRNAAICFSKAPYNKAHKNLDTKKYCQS
The experiment is described as follows: PLA2 inhibition, E. coli assay, human pancreatic PLA2. On the procedure: as §1, §2, §3

For experiment [3], the target named is T3, porcine pancreatic PLA2 (Sus scrofa, UniProt P00592).
T3 construct: labelled E. coli membrane substrate
T3 sequence (P00592 23-146): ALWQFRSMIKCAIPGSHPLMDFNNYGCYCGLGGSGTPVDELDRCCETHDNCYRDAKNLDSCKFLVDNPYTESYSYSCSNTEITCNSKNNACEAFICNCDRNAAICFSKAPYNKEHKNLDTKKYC
In words: PLA2 inhibition, E. coli assay, porcine pancreatic PLA2. The method, then:
as §1, §2, §3

The mark [4] stands for this setting: concentrations of 25 μg/ml or greater.
[5] abbreviates: recombinant human PLA2, 30 min preincubation.

SMILES strings stand for the structures.

Broadly, the % inhibition is the change of the read-out against control, counted positive when it falls. A higher % inhibition goes with a response far below the control.

On to `CC1(O)c2cccc(O)c2C(=O)C2=C(O)C3(O)C(=O)C(C(N)=O)=C(O)CC3CC21` (stereo not drawn) [CMT-1, 4-dedimethylaminotetracycline], for which, in experiment [1] (setting [4]), the PLA2-inhibitory activity entry is “exhibited significant PLA2 -inhibitory activity”. Moreover, in experiment [1] (setting [5]), the “IC50 (concentration of the drug required to inhibit 50% of PLA2)” value turned out to be 37 µg/mL. The “inhibition of human pancreatic PLA2” value in experiment [2] is given as “found to inhibit”. Further, in experiment [3], the “inhibition of porcine pancreatic PLA2” value was “found to inhibit”.

As to `CN(C)C1C(=O)C(C#N)=C(O)C2(O)C(=O)C3=C(O)c4c(O)cccc4C(C)(O)C3CC12` (stereo not drawn) [CMT-2, tetracyclinonitrile], in experiment [1] (highest concentrations tested (range 5-100 μg/ml)), the PLA2-inhibitory activity result was “lacked any PLA2 -inhibitory activity”.

`NC(=O)C1=C(O)C2(O)C(=O)C3=C(O)c4c(O)cccc4CC3CC2CC1=O` (stereo not drawn) [CMT-3, 6-demethyl-6-deoxy-4-de-dimethylaminotetracycline]: the PLA2-inhibitory activity entry in experiment [1] (setting [4]) is “exhibited significant PLA2 -inhibitory activity”. For the same compound, in experiment [1] (recombinant human PLA2, 30 min preincubation, read-out: IC50 (concentration of the drug required to inhibit 50% of PLA2) (converted)), the IC50 was 75.4 µM. Also, the “inhibition of human pancreatic PLA2” value in experiment [2] is on record as “found to inhibit”. In addition, the “inhibition of porcine pancreatic PLA2” value in experiment [3] is given as “found to inhibit”.

Take `CC1(O)c2c(Cl)ccc(O)c2C(=O)C2=C(O)C3(O)C(=O)C(C(N)=O)=C(O)CC3CC21` (stereo not drawn) [CMT-4, 4-de-dimethylamino-7-chloro-tetracycline]: the PLA2-inhibitory activity result in experiment [1] (setting [4]) is recorded as “exhibited significant PLA2 -inhibitory activity”. Further, the “IC50 (concentration of the drug required to inhibit 50% of PLA2)” value in experiment [1] (setting [5]) was 42 µg/mL. The “inhibition of human pancreatic PLA2” value in experiment [2] was “found to inhibit”. Moreover, the “inhibition of porcine pancreatic PLA2” value in experiment [3] is recorded as “found to inhibit”.

Regarding `CC1(O)c2cccc(O)c2C(=O)C2=C(O)C3(O)C(=O)C(C(N)=O)=C(O)C(O)C3CC21` (stereo not drawn) [CMT-6, 4-hydroxy-4-dedimethylaminotetracycline], in experiment [1] (setting [4]), the PLA2-inhibitory activity result was “exhibited significant PLA2 -inhibitory activity”. In addition, the “IC50 (concentration of the drug required to inhibit 50% of PLA2)” value in experiment [1] (setting [5]) is 17 µg/mL. In addition, the “inhibition of human pancreatic PLA2” value in experiment [2] is reported as “found to inhibit”. Also, in experiment [3], the “inhibition of porcine pancreatic PLA2” value is “found to inhibit”.

For the compound `CN(C)c1ccc(O)c2c1C(C)(O)C1CC3CC(O)=C(C(N)=O)C(=O)C3(O)C(O)=C1C2=O` (stereo not drawn) [CMT-10, 4-dedimethylamino-7-dimethylaminotetracycline], in experiment [1] (setting [4]), the PLA2-inhibitory activity result is listed as “exhibited significant PLA2 -inhibitory activity”. For the same compound, the “IC50 (concentration of the drug required to inhibit 50% of PLA2)” value in experiment [1] (setting [5]) worked out at 30 µg/mL. The “inhibition of human pancreatic PLA2” value in experiment [2] was “found to inhibit”. In experiment [2] (30 μg/ml, human pancreatic PLA2), the “% inhibition” value is given as 66%.
